Holding throughout (assay type): biochemical
One experiment deals with T1, SIRT2 (Homo sapiens, UniProt Q8IXJ6).
T1 construct: purchased
T1 sequence (Q8IXJ6 1-389): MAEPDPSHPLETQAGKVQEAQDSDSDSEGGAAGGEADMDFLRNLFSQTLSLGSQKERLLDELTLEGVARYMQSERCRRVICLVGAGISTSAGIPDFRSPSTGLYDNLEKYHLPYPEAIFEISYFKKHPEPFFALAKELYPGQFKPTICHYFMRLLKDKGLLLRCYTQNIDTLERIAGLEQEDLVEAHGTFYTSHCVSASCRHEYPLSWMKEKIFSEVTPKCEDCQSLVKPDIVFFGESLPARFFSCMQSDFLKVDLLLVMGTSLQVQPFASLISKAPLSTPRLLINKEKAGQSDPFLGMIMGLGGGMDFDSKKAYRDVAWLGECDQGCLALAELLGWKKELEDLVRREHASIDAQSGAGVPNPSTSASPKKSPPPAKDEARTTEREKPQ
Nature of the experiment: HPLC-based SIRT2 inhibition assay with purified SIRT2. To be noted: SIRT2 vs SIRT3. How it is done: (§1) Inhibition assays with purified SIRT1, SIRT2, and SIRT3. GST-SIRT1 that could be produced in a laboratory was used for the SIRT1 inhibition assay. SIRT2 and SIRT3 are obtainable from commercial sources known to those skilled in the art. Consistent HPLC-based assay procedures were used for the inhibition assays with SIRT1, SIRT2, and SIRT3. In brief, an inhibition assay solution had the following components: 25 mM (or 50 mM for SIRT2 assay) Tris.HCl (pH 8.0) 137 mM NaCl, 2.7 mM KCl, 1 mM MgCl2, 1 mg/mL BSA (SIGMA Cat. #A3803 with reduced fatty acid content, for SIRT2 assay only), 0.5 mM β-NAD^+, 0.3 mM peptide substrate (peptide 1b for SIRT1 and SIRT2 assays; peptide 3b for SIRT3 assay), an inhibitor (peptide 1a, 2, or 3a) with varied concentrations including 0, and an enzyme (GST-SIRT1, 0.15 μM; SIRT2, 0.3 μM; or SIRT3, 2.0 μM). […] An enzymatic reaction was initiated by the addition of an enzyme at 37° C. and was allowed to be incubated at 37° C.: 10 minutes as follows: for SIRT1 assay, or 60 minutes for SIRT2 and SIRT3 assays. […] The enzymatic deacetylation products (peptide 1c in SIRT1 and SIRT2 assays; peptide 3c in SIRT3 assay) were confirmed by their comigration with the chemically synthesized authentic samples and by MALDI-TOF mass spectrometric analysis, and were quantified by HPLC peak integration and comparison with those of synthetic authentic samples. […]

The target of another experiment is T2, SIRT1 (Homo sapiens, UniProt Q96EB6).
T2 construct: made in house
T2 sequence (Q96EB6 1-747): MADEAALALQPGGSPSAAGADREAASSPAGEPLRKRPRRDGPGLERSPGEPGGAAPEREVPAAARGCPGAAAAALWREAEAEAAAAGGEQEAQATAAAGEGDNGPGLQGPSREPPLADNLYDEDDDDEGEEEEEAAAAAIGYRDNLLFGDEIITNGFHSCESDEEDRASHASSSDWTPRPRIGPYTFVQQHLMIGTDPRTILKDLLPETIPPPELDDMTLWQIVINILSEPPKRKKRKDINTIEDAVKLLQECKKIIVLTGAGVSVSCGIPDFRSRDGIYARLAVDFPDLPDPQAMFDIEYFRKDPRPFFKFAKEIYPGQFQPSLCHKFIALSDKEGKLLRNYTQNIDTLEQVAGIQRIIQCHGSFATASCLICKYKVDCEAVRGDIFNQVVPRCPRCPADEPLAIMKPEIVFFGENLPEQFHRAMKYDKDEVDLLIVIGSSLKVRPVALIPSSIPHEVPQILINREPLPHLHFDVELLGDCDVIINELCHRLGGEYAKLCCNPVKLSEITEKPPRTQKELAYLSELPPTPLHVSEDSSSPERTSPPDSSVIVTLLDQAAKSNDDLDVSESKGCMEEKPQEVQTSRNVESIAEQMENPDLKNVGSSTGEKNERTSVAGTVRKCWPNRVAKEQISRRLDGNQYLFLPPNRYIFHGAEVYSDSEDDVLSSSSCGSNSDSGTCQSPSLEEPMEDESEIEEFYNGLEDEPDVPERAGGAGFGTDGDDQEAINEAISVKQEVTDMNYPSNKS
The experiment can be described thus: HPLC-based SIRT1 inhibition assay with purified GST-SIRT1. How it is done:
Inhibition assays with purified SIRT1, SIRT2, and SIRT3. GST-SIRT1 that could be produced in a laboratory was used for the SIRT1 inhibition assay. SIRT2 and SIRT3 are obtainable from commercial sources known to those skilled in the art. Consistent HPLC-based assay procedures were used for the inhibition assays with SIRT1, SIRT2, and SIRT3. […] An enzymatic reaction was initiated by the addition of an enzyme at 37° C. and was allowed to be incubated at 37° C.: 10 minutes as follows: for SIRT1 assay, or 60 minutes for SIRT2 and SIRT3 assays. Incubation was quenched at the indicated time with the following stop solution: 100 mM HCl and 0.16 M acetic acid. […] All peptide stock solutions were prepared in ddH2O. IC50 values were estimated from Dixon plots (1/v0 vs. [inhibitor]) as an indication of the inhibition potency.

The next experiment concerns the target T3, SIRT3 (Homo sapiens, UniProt Q9NTG7).
T3 construct: purchased
T3 sequence (Q9NTG7 1-399): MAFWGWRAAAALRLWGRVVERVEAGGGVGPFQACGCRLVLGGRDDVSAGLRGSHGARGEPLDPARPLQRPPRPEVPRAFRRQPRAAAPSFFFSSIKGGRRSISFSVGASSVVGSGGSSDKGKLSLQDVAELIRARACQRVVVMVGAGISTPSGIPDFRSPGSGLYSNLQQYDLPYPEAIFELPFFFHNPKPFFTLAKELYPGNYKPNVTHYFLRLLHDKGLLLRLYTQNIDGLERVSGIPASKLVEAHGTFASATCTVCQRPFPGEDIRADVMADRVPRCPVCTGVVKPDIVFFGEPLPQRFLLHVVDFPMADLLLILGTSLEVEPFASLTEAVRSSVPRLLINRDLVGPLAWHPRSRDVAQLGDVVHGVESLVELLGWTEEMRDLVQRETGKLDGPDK
The experiment can be described thus: HPLC-based SIRT3 inhibition assay with purified SIRT3. To be noted: SIRT3 vs SIRT2. How it is done:
as §1

The structures appear in SMILES notation. Non-standard residues stand in square brackets, D forms with d. Residues, ends and D or L forms follow the SMILES beside them. Lys(Thioacetyl) = CC(=S)NCCCC[C@H](N)C(=O)O

Regarding `CC[C@H](C)[C@H](NC(=O)[C@@H](NC(=O)[C@H](CCCCN)NC(=O)[C@H](CCCNC(=N)N)NC(=O)[C@H](CC(C)C)NC(=O)[C@H](CC(C)C)NC(=O)[C@H](CCCNC(=N)N)NC(=O)[C@H](CCCNC(=N)N)NC(=O)[C@H](CCSC)NC(=O)[C@@H](NC(=O)[C@H](CCCCNC(C)=S)NC(=O)CNC(=O)[C@H](CO)NC(=O)[C@H](CCCNC(=N)N)NC(=O)[C@@H](NC(=O)[C@H](CCCCN)NC(=O)[C@@H]1CCCN1C(=O)[C@H](CC(C)C)NC(=O)[C@H](CCCNC(=N)N)NC(=O)[C@@H](N)CCCCN)[C@@H](C)O)C(C)C)[C@@H](C)CC)C(=O)O` [Peptide 3a] (H-KRLPKTRSG[Lys(Thioacetyl)]VMRRLLRKII-OH), at SIRT2, the “inhibition potency for SIRT2 relative to SIRT3” value is given as “comparably potent inhibitor”. For the same compound, the “stronger inhibition with respect to SIRT1 than SIRT2 and SIRT3” value at SIRT1 (SIRT1 vs SIRT2 and SIRT3) is given as “about 5 fold”.

In the case of `CC[C@H](C)[C@H](NC(=O)[C@@H](NC(=O)[C@H](CCCCNC(C)=S)NC(=O)[C@H](CC(=O)O)NC(=O)[C@H](CO)NC(=O)[C@@H]1CCCN1C(=O)[C@@H](N)CCSC)[C@@H](C)O)C(=O)NCC(=O)NCC(=O)O` [Peptide 2] (H-MPSD[Lys(Thioacetyl)]TIGG-OH), the “inhibition weaker for SIRT1 as compared to SIRT2” value against SIRT1 (SIRT1 vs SIRT2) is reported as “about 10 fold”. In addition, the “inhibition weaker for SIRT3 as compared to SIRT2” value against SIRT3 is recorded as “about 40 fold”.

Source of the values: patent US20080287653A1, “METHOD FOR PRODUCING INHIBITORS AND INHIBITORS FORMED THEREFROM” (THE UNIVERSITY OF AKRON, priority 2007, published 2008).
